What all share (format): functional
The subject of test [1] is A549. The experiment in a line: Growth inhibition of human A549/ATCC cells at 10 uM after 48 hrs by sulforhodamine B assay. The following applies: A549, 48 h, read-out: GI. Background: In SRB staining, fixed cells bind dye roughly in proportion to their protein.
The test system of test [2] is NCI-H23. The experiment in a line: Growth inhibition of human NCI-H23 cells at 10 uM after 48 hrs by sulforhodamine B assay. The following applies: NCI-H23, 48 h, read-out: GI.
Test [3] concerns NCI-H460. The experiment in a line: Growth inhibition of human NCI-H460 cells at 10 uM after 48 hrs by sulforhodamine B assay. The following applies: NCI-H460, 48 h, read-out: GI.
The subject of test [4] is HT-29. The experiment in a line: Growth inhibition of human HT-29 cells at 10 uM after 48 hrs by sulforhodamine B assay. The following applies: HT-29, 48 h, read-out: GI.
Test [5] deals with SW-620. The experiment in a line: Growth inhibition of human SW620 cells at 10 uM after 48 hrs by sulforhodamine B assay. The following applies: SW-620, 48 h, read-out: GI.
Test [6] relates to BT-549. Kind of test: Growth inhibition of human BT549 cells at 10 uM after 48 hrs by sulforhodamine B assay. The following applies: BT-549, 48 h, read-out: GI.
Test [7] relates to MDA-MB-231. Kind of test: Growth inhibition of human MDA-MB-231/ATCC cells at 10 uM after 48 hrs by sulforhodamine B assay. The following applies: MDA-MB-231, 48 h, read-out: GI.
In test [8] the test system is T47D. The experiment in a line: Growth inhibition of human T47D cells at 10 uM after 48 hrs by sulforhodamine B assay. The following applies: read-out: GI.
In test [9] the test system is OVCAR-8. The experiment in a line: Growth inhibition of human OVCAR8 cells at 10 uM after 48 hrs by sulforhodamine B assay. The following applies: OVCAR-8, 48 h, read-out: GI.
Test [10] has as its system MOLT-4. Kind of test: Growth inhibition of human MOLT4 cells at 10 uM after 48 hrs by sulforhodamine B assay. The following applies: MOLT-4, 48 h, read-out: GI.
The subject of test [11] is SR. Kind of test: Growth inhibition of human SR cells at 10 uM after 48 hrs by sulforhodamine B assay. The following applies: read-out: GI.
The subject of test [12] is ACHN. Kind of test: Growth inhibition of human ACHN cells at 10 uM after 48 hrs by sulforhodamine B assay. The following applies: read-out: GI.
Test [13] deals with LOX IMVI. The experiment in a line: Growth inhibition of human LOXIMVI cells at 10 uM after 48 hrs by sulforhodamine B assay. The following applies: read-out: GI.
The test system of test [14] is Malme-3M. Kind of test: Growth inhibition of human MALME-3M cells at 10 uM after 48 hrs by sulforhodamine B assay. The following applies: read-out: GI.
Test [15] concerns SF-268. The experiment in a line: Growth inhibition of human SF268 cells at 10 uM after 48 hrs by sulforhodamine B assay. The following applies: SF-268, 48 h, read-out: GI.
The test system of test [16] is SF-295. The experiment in a line: Growth inhibition of human SF295 cells at 10 uM after 48 hrs by sulforhodamine B assay. The following applies: SF-295, 48 h, read-out: GI.
For test [17], the system named is SF-539. The experiment in a line: Growth inhibition of human SF539 cells at 10 uM after 48 hrs by sulforhodamine B assay. The following applies: SF-539, 48 h, read-out: GI.

As for `CO[C@@H]1[C@@H](OC)N(S(=O)(=O)c2ccc(Cl)cc2)C(=O)N1S(=O)(=O)c1ccc(Cl)cc1` (relative stereo), the inhibition of growth at 10 µM in [1] was 21.7%; in test [2], 8.09%; in test [3] it was -1.36%; in [4], 16%; in test [5] it was 1.4%; in test [6], 2.35%. The inhibition of growth at 10 µM in test [7] is 23.4%; in test [8], 9.2%; in test [9] it was 9.39%; in [10] it was 43.5%; in test [11], 34.7%; in test [12], 9.71%. The inhibition of growth at 10 µM in [13] was 5.58%; in test [14] it was 6.65%; in test [15] it was 1.84%; in [16], 34%; in [17] it was -15.2%.

The values above are taken from ChEMBL document CHEMBL1955806, “Design, synthesis, single-crystal and preliminary antitumor activity of novel arenesulfonylimidazolidin-2-ones” (2012).
